“And” between values parts separate entries of the source, which are not always exact repeats. Equal entries are not always repeated.
What was measured:
B. microti = assay: nested PCR detection of B. microti ss-rRNA gene in blood of treated mice; type: in vivo, Babesia microti; conditions: day 42; 25 mg/kg DA
[1] = system: Babesia microti (Munich strain); assay: in vivo growth inhibition and drug combination assays in B. microti-infected BALB/c mice; conditions: for peak parasitemia level: 5 days
Protocol: (§1) A microaerophilic stationary-phase culture system was used to maintain Babesia parasite cultures for a long time. Briefly, B. caballi (USDA strain) was grown using equine red blood cells (RBCs) in GIT medium supplemented with 40% equine serum. Theileria equi (USDA strain) was grown in equine RBCs in Medium 199 (M199; Sigma-Aldrich, Tokyo) supplemented with 40% equine serum, and hypoxanthine (MP Biomedicals, Santa Ana, CA, USA) at a final concentration of 13.6 μg/ml was used as a vital supplement. Babesia bovis (Texas strain) and B. bigemina (Argentina strain) were grown in bovine RBCs in M199 medium supplemented with 40% bovine serum. Meanwhile, B. divergens (Germany strain) was grown in bovine RBCs in medium RPMI 1640 (Sigma-Aldrich, Tokyo) supplemented with 40% bovine serum. All media included 60 U/ml penicillin G, 60 μg/ml streptomycin and 0.15 μg/ml amphotericin B (Sigma-Aldrich, St. Louis, MO, USA) to prevent bacterial contamination. The cultures were incubated at 37 °C in a humidified chamber with an atmosphere of 5% CO2, 5% O2 and 90% N2. Babesia microti (Munich strain) was recovered from − 80 °C stock, intraperitoneally injected in two 8-week old female BALB/c mice (Clea Japan, Tokyo, Japan), and the parasitemia was monitored every 2 days. The mice were euthanized using an anesthesia system containing isoflurane after parasitemia reached approximately 30%, and blood was collected by cardiac puncture to initiate the in vivo experiment. The animal experiment was conducted in accordance with the Regulations for Animal Experiments of Obihiro University of Agriculture and Veterinary Medicine, Japan (animal experiment accession number: 290168).
In vivo growth inhibition assays of EA, β-CD EA and APSP EA were performed in B. microti-infected BALB/c mice in accordance with the previous protocol in two separate trials. […] The mice in groups 2–8 were intraperitoneally (i.p.) injected with 0.5 ml of inoculum (1 × 10^7 B. microti-iRBCs). Group 1 was left uninfected and untreated as a negative control. When the average parasitemia in all mice reached 1%, drug treatment was initiated for 5 consecutive days. […] DA at a concentration of 25 mg/kg body weight (BW) was administrated i.p. to the third group as a reference drug control.

[2] = system: Babesia bovis (Texas strain); assay: in vitro growth inhibition assay (SYBR Green I fluorescence), single drug and 1:1 combination; type: cell-based; conditions: for IC50: B. bovis in vitro culture, 4 days
Protocol: as §1
(§2) Assays were performed in accordance with the previously described protocol. Briefly, B. bovis, B. bigemina, B. divergens, B. caballi and T. equi cultures were harvested and adjusted to 1% parasitemia with fresh RBCs to start the inhibition assay. The assays were carried out using 96-well microtiter plates where only the 60 inner wells were used, while the peripheral wells were filled with sterile distillate water to reduce evaporation during incubation. In five 96-well plates, a volume of 2.5 µl each of B. bigemina- and B. bovis-iRBCs and 5 µl each of B. divergens-, B. caballi- and T. equi-iRBCs were added to each well in triplicate and mixed with a culture medium containing the drug concentrations to a total volume of 100 µl. Various concentrations of EA, β-CD EA, APSP EA, DA, CF and AQ were dissolved in a culture medium using two-fold dilution. Wells containing DMSO at a final concentration of 0.4% and iRBCs were used as a positive control, while wells with non-infected RBCs and culture medium were used as a negative control. Additionally, a drug combination assay was performed in parallel with the single drug assay at a constant ratio of 1:1, as described previously. […] The plates were incubated in a humidified incubator with 5% CO2, 5% O2 and 90% N2 for 4 days without changing the medium. On day 4, 100 µl of a lysis buffer containing 2 × SG1 was added to each well. The plates were wrapped with aluminum foil to avoid direct light exposure and incubated at room temperature. After 6 h, fluorescence values were measured using a fluorescence spectrophotometer (Fluoroskan Ascent; Thermo LabSystems, Oceanside, CA, USA) with excitation and emission wavelengths of 485 and 518 nm, respectively. The fluorescence data were subtracted from the negative control and used to calculate the IC50. To calculate the degree of association, the growth-inhibition values obtained were entered into CompuSyn software, based on the combination index (CI) values. […] The experiments were repeated three times.

[3] = system: Theileria equi (USDA strain); assay: as above; type: cell-based; conditions: for IC50: T. equi in vitro culture, 4 days
Protocol: as §1, §2

[4] = system: B. divergens (Germany strain); assay: as above; type: cell-based, Babesia divergens; conditions: for IC50: B. divergens in vitro culture, 4 days
Protocol: as §1
(§3) Assays were performed in accordance with the previously described protocol. Briefly, B. bovis, B. bigemina, B. divergens, B. caballi and T. equi cultures were harvested and adjusted to 1% parasitemia with fresh RBCs to start the inhibition assay. The assays were carried out using 96-well microtiter plates where only the 60 inner wells were used, while the peripheral wells were filled with sterile distillate water to reduce evaporation during incubation. In five 96-well plates, a volume of 2.5 µl each of B. bigemina- and B. bovis-iRBCs and 5 µl each of B. divergens-, B. caballi- and T. equi-iRBCs were added to each well in triplicate and mixed with a culture medium containing the drug concentrations to a total volume of 100 µl. Various concentrations of EA, β-CD EA, APSP EA, DA, CF and AQ were dissolved in a culture medium using two-fold dilution. Wells containing DMSO at a final concentration of 0.4% and iRBCs were used as a positive control, while wells with non-infected RBCs and culture medium were used as a negative control. Additionally, a drug combination assay was performed in parallel with the single drug assay at a constant ratio of 1:1, as described previously. […] The plates were incubated in a humidified incubator with 5% CO2, 5% O2 and 90% N2 for 4 days without changing the medium. On day 4, 100 µl of a lysis buffer containing 2 × SG1 was added to each well. The plates were wrapped with aluminum foil to avoid direct light exposure and incubated at room temperature. After 6 h, fluorescence values were measured using a fluorescence spectrophotometer (Fluoroskan Ascent; Thermo LabSystems, Oceanside, CA, USA) with excitation and emission wavelengths of 485 and 518 nm, respectively. The fluorescence data were subtracted from the negative control and used to calculate the IC50. […]

B. caballi (USDA strain) = assay: as above; type: cell-based, Babesia caballi; conditions: for IC50: B. caballi in vitro culture, 4 days
Protocol: as §1, §3

[5] = system: B. bigemina (Argentina strain); assay: as above; type: cell-based, Babesia bigemina; conditions: for IC50: B. bigemina in vitro culture, 4 days
Protocol: as §1, §3

[6] = system: mouse embryonic fibroblast (NIH/3T3) cell line; assay: cytotoxicity assay (CCK-8); type: cell-based; conditions: for inhibition of cell viability: NIH/3T3; for EC50: NIH/3T3 cells, 24 h exposure, CCK-8
Protocol: (§4) The MDBK cell line was maintained in 75 cm^2 culture flasks with Minimum Essential Medium Eagle (MEM; Gibco, Grand Island, NY, USA), while Dulbecco’s Modified Eagle’s Medium (DMEM; […] Each medium was supplemented with 10% fetal bovine serum, 0.5% penicillin/streptomycin (Gibco), and an additional 1% glutamine. Every 3 to 4 days, the medium was changed, and the cells were incubated until approximately 80% confluent. The cells were free from mycoplasma contamination after being checked by staining with 4,6-diamidino-2-phenylindole dihydrochloride (DAPI; Sigma-Aldrich, St. Louis). The cell detachment from the culture flask was done using TrypLE^TM Express (Gibco) after washing two times with Dulbecco’s phosphate-buffered saline (DPBS). Subsequently, viable cells were counted using a Neubauer Improved C-Chip (NanoEnTek Inc., Seoul, Korea) after staining with 0.4% trypan blue solution. The drug-exposure viability assay was performed in accordance with the recommendation for the Cell Counting Kit-8 (CCK-8; Dojindo, Kumamoto, Japan). Briefly, in a 96-well plate, 100 µl of cells at a density of 5 × 10^4 cells/ml were seeded per well and allowed to attach to the plate for 24 h at 37 °C in a humidified incubator with 5% CO2. Ten microliters of drug diluted two-fold were added to each well to a final concentration of 0.781 to 800 µM in triplicate. Wells with only a culture medium were used as blanks, while wells containing cells and a medium with 0.5% DMSO were used as positive controls. Drug exposure lasted for 24 h. After 24 h, 10 µl of CCK-8 was added, and the plate was further incubated for 3 h. Absorbance was measured at 450 nm using a microplate reader.

[7] = system: Madin-Darby bovine kidney (MDBK) cell line; assay: cytotoxicity assay (CCK-8); type: cell-based; conditions: for EC50: MDBK cells, 24 h exposure, CCK-8
Protocol: as §4

[8] = system: human foreskin fibroblast (HFF) cell line; assay: cytotoxicity assay (CCK-8); type: cell-based; conditions: for EC50: HFF cells, 24 h exposure, CCK-8
Protocol: as §4

P. falciparum = system: P. falciparum; set-up: method as in PMID 19015354; conditions: cited from earlier work
L. major = system: L. major; set-up: method as in PMID 28643086; conditions: cited from earlier work

SMILES: CC(=O)NCC(=O)O.CC(=O)NCC(=O)O.N=C(N)c1ccc(N=NNc2ccc(C(=N)N)cc2)cc1 [DA, diminazene aceturate]
- parasite DNA in blood (nPCR) (B. microti): not detected
- peak parasitemia level ([1]; first assay, 25 mg/kg DA i.p., peak on day 8, DDW control 57.7%): 5.2%
- day p.i. from which parasitemia was undetectable by microscopic examination ([1]; second assay, 25 mg/kg DA): 13 day p.i.
- peak parasitemia level ([1]; second assay, 25 mg/kg DA i.p., DDW control 58.3%): 3.9%
- IC50 [2]: 0.35 ± 0.06 µM
- IC50 [3]: 0.71 ± 0.05 µM
- IC50 [4]: 0.43 ± 0.05 µM
- IC50 (B. caballi (USDA strain)): 0.022 µM and 0.02 µM
- IC50 [5]: 0.68 ± 0.09 µM
- inhibition of cell viability ([6]; 100 µM, separate assay): did not show any inhibition
- EC50 [6]: > 100 µM
- EC50 [7]: > 100 µM
- inhibition of cell viability ([7]; MDBK, 100 µM, separate assay): did not show any inhibition
- EC50 [8]: > 100 µM
- inhibition of cell viability ([8]; HFF, 100 µM, separate assay): did not show any inhibition

SMILES: O=c1oc2c(O)c(O)cc3c(=O)oc4c(O)c(O)cc1c4c23 [EA, Ellagic acid]
- peak parasitemia level ([1]; first assay, 35 mg/kg EA i.p., peak on day 8, DDW control 57.7%): 29.5%
- concentration that significantly inhibited the growth ([2]; B. bovis, t-test vs control): 0.078 µM
- IC50 ([2]; Babesia bovis, in Bos taurus, 96 h): 9.58 ± 1.47 µM
- concentration that significantly inhibited the growth ([3]; T. equi, t-test vs control): 0.125 µM
- IC50 ([3]; Theileria equi, 96 h): 7.46 ± 0.6 µM
- concentration that significantly inhibited the growth ([4]; B. divergens, t-test vs control): 0.125 µM
- IC50 ([4]; Babesia divergens, 96 h): 5.41 ± 2.8 µM
- concentration that significantly inhibited the growth (B. caballi (USDA strain); B. caballi, t-test vs control): 0.125 µM
- IC50 (B. caballi (USDA strain); Babesia caballi, 96 h): 3.29 ± 0.42 µM
- concentration that significantly inhibited the growth ([5]; B. bigemina, t-test vs control): 0.078 µM
- IC50 ([5]; Babesia bigemina, 96 h): 7.87 ± 5.8 µM
- IC50 (P. falciparum): 0.33 µM
- IC50 (L. major): 9.8 μg/ml^e
- Selective indices NIH/3T3 ([6]; EC50 NIH/3T3 / IC50 B. bigemina): > 101.3
- Selective indices NIH/3T3 ([6]; EC50 NIH/3T3 / IC50 B. bovis): > 83.3
- Selective indices NIH/3T3 ([6]; EC50 NIH/3T3 / IC50 B. divergens): > 148.1
- Selective indices NIH/3T3 ([6]; EC50 NIH/3T3 / IC50 T. equi): > 106.7
- EC50 ([6]; Mus musculus, NIH3T3): > 800 µM
- inhibition of cell viability ([6]; 800 µM): did not show any inhibition
- EC50 ([7]; Bos taurus, MDBK, 24 h): > 800 µM
- Selective indices MDBK ([7]; EC50 MDBK / IC50 B. bigemina): > 101.3
- Selective indices MDBK ([7]; EC50 MDBK / IC50 B. bovis): > 83.3
- Selective indices MDBK ([7]; EC50 MDBK / IC50 B. divergens): > 148.1
- Selective indices MDBK ([7]; EC50 MDBK / IC50 T. equi): > 106.7
- inhibition of cell viability ([7]; MDBK, 800 µM): did not show any inhibition
- Selective indices HFF ([8]; EC50 HFF / IC50 B. bigemina): > 101.3
- Selective indices HFF ([8]; EC50 HFF / IC50 B. bovis): > 83.3
- Selective indices HFF ([8]; EC50 HFF / IC50 B. divergens): > 148.1
- Selective indices HFF ([8]; EC50 HFF / IC50 T. equi): > 106.7
- EC50 ([8]; Homo sapiens): > 800 µM
